Legend:
[1] = tested on: mitochondria in CCCP-treated hMSCs; assay: Effects of CCCP on uptake of dyes; assay type: cell-based, human; conditions: for specificity to mitochondria after CCCP treatment / uptake / imaging signal (sensitivity) after CCCP treatment: hMSCs pre-treated with 10 μM CCCP for 30 min, 5 μM dye, 25 nM MT, 25 min
Source text: Mitochondria can continuously oxidize substrates and maintain a proton gradient across the lipid bilayer with very large membrane potential (−180 mV). The membrane potential as the major driving force enables the entrance and accumulation of the cationic species into mitochondria rather than cell plasma. CCCP is an uncoupler that causes rapid acidification of mitochondria and dysfunction of ATP synthase resulting in the decrease of mitochondrial membranes potential. To confirm the tolerances of MC-Mito1 and MC-Mito2, carbonyl cyanide m-chlorophenylhydrazone (CCCP) was used to treat the cells prior to the staining procedure.
It was expected because CCCP-induced decrease of membranes potential will severely affect the direction and accumulation of cationic mitochondrial probes. The most of commercial mitochondrial probes are suffered by the similar limitation. […] Compared with MC-Mito1, MC-Mito2 has longer hydrophobic linker between the flavone dye and the cation. Since mitochondrial membrane is composed of phospholipid bilayers and proteins, the stronger lipophilicity has been supposed to play an important role in retaining the specificity of MC-Mito2 in CCCP-treated cells.
The hMSCs were treated with 10 μM carbonyl cyanide m-chlorophenylhydrazone (CCCP) for 30 min. and then were washed with fresh medium. After that, the cells were incubated with 5 μM MC-Mito1 and 25 nM MT, 5 μM MC-Mito2 and 25 nM MT for 25 min at 37° C., respectively. After staining, the cells were imaged by microscope without PBS solution washing procedure.

mitochondria in hMSCs = assay: Co-staining with Mitotracker red CMXRos (subcellular distribution); assay type: cell-based, human; conditions: 5 μM dye and 25 nM MT, 25 min
Description: To determine the subcellular distribution of the probes in living cells, the MT were co-incubated with MC-Mito1 and MC-Mito2, respectively. […] Despite that the decrease of membranes potential will severely affect the direction and accumulation of cationic mitochondrial probes.
Human mesenchymal stem cells (hMSCs) (Lonza, Walkersville, Md.) were cultured in serum-containing MSCBM medium (Lonza) supplemented with MSCGM SingleQuots (Lonza) according to manufacturer's specifications. hMSCs (Passage 5) were seeded at a density of 5.0×10^4 cell/cm^2. For co-staining experiments, the hMSCs were seeded on 12-well plate, cultured in MSCBM medium (Lonza) supplemented with MSCGM SingleQuots (Lonza), and incubated with 5 μM MC and 25 nM Mitotracker® red CMXRos (MT), 5 μM MC-Br and 25 nM MT, 5 μM MC-Mito1 and 25 nM MT, 5 μM MC-Mito2 and 25 nM MT for 25 min at 37° C., respectively. Each well contains 1 ml of medium and 0.05 ml DMSO (dissolving probe). The cell imaging was obtained on a Zeiss inverted fluorescence microscopy with X-Cite Series 120Q. The blue channel filter: excitation 365 nm, beam splitter FT 395 nm, emission 445/50 nm. The green channel filter: excitation 450-490 nm, beam splitter FT 510 nm, emission 515-565 nm. The red channel filter: excitation 587/25 nm, beam splitter FT 605 nm, emission 647/70 nm.

[2] = UV absorption and fluorescence spectra of the dyes; conditions: for Stokes shift: in DMSO; for absorption maxima / emission maxima: in DMSO solution
hMSCs [3] = assay: Cytotoxicity determined by MTT method; assay type: cell-based, human; conditions: for cell viability: hMSCs, 0, 2, 5, 10 μM, 24 h
Description: Before the application for cell imaging, the cytotoxicity of MC-Mito1 and MC-Mito2 were evaluated by the widely used MTT assay to evaluate the tolerance of sensors to their working concentrations. The samples were incubated with 0, 2, 5, 10 μM MC-Mito1, MC-Mito2 and Mitotracker® red CMXRos (MT) for 24 h, respectively (FIG. 5). […] In contrast, only less than 10% of the cells were viable after incubation with 5 μM of commercial mitochondrial dye MT for 24 hours. […] The hMSCs were seeded in 12-well plates at a density of 5.0×10^4 cell/cm^2. After 24 h incubation, the cells were exposed to a series of doses of probe MC-Mito1 or MC-Mito2, and MT at 37° C. The concentration of MT (0, 2, 5, 10 μM) was similar as reported in literature.^28 After 24 hours, MTT solution (sigma) was added and kept 3 h in the incubator. MTT solubilization solution was then added into each well and the plate was gently shaken for 10 min at room temperature. The absorbance of MTT in the sample well was determined by subtracting the absorbance of the sample well from corresponding control well. Cell viability was expressed by the ratio of the absorbance of MTT in the sample wells to that of the cells incubated with culture medium only.

[4] = Fluorescence quantum yield (rhodamine 6G standard); assay type: physicochemical; conditions: rhodamine 6G in ethanol as reference; reported after BSA addition experiment
Source text: The fluorescence quantum yields were obtained using rhodamine 6G (sigma) as the standard (Φfl=0.95, ethanol). The fluorescence quantum yields can be calculated by using the following Eq: Φs=Φr×(Ar×ns^2×Fs)/(As×nr^2×Fr) where the subscripts s and r refer to the sample and the standard, respectively. Φ is the quantum yield, F is the integrated emission intensity, A is the absorbance, and n is the refractive index. Zebrafish Breeding and Imaging

[5] = target: bovine serum albumin (BSA) (Bos taurus, UniProt P02769); assay: Fluorescence response upon addition of bovine serum albumin; assay type: binding; conditions: 2 equivalents of BSA; 2 μM probe, 1 mM HEPES buffer (1% DMSO); at 495 nm (MC-Mito1) / 490 nm (MC-Mito2)
bovine serum albumin (BSA), sequence (P02769 25-607): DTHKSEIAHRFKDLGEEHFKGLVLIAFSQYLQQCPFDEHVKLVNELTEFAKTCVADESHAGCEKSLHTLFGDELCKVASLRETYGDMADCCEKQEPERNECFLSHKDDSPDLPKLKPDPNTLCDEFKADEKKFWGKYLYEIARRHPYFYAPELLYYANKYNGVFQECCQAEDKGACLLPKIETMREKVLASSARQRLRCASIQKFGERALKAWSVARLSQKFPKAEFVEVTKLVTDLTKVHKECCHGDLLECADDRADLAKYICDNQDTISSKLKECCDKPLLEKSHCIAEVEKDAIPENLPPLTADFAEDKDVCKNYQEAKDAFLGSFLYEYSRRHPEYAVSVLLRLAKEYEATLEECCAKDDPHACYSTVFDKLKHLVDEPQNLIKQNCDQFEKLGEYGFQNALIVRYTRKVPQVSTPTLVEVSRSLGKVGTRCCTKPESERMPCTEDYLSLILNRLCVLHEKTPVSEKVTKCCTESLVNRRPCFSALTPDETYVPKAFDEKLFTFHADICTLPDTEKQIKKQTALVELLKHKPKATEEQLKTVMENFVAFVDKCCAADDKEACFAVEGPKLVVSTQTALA
Description: FIG. 4B provides a graph showing the fluorescence intensity changes of MC-Mito1 in the presence of increasing concentrations of BSA in 1 mM HEPES buffer (1% DMSO). [MC-Mito1]=[MC-Mito2]=2 μM, [BSA]=0˜4 μM. λex=400 nm.
FIG. 11 is a chart showing fluorescence spectra of DMAF ([DMAF]=10 μM, 1 mM HEPES buffer containing 1% DMSO, pH=7.4) upon addition of different concentration of BSA ([BSA]=0-10 μM, 1 mM HEPES).
MC-Mito1 and MC-Mito2 were nearly non-fluorescent in water (QYs <1%), due to specific H-bonding interaction of water solvents with H-bond acceptor carbonyl groups in flavone skeleton. However, upon addition of bovine serum albumin (BSA) into probe water solution, the fluorescence intensity increased sharply (FIG. 4A-D). After addition of 2 equivalent of BSA, the fluorescence intensity of MC-Mito1 at 495 nm was enhanced by about 17-fold, which was accompanied with a large blue-shift (from 540 nm to 495 nm, FIGS. 4A and 4B). […] By using rhodamine 6G in ethanol (QY=95%) as a reference, the fluorescence quantum yield (QY) of MC-Mito1 and MC-Mito2 were determined to be 28% and 33%, respectively. […] The high signal-to-noise ratio (>10) enables the simple wash-free in vivo fluorescence imaging. […]

hMSCs [6] = assay: Cell staining efficiency without washing process; assay type: cell-based, human
Description: To assess their cell staining efficiencies, the hMSCs cells were incubated with MT, MC-Mito1 and MC-Mito2, respectively. Cell staining was continuously recorded in 3 min, 10 min and 25 min without washing process. It was found MC-Mito1 and MC-Mito2 quickly stained the living cells in 10 mins. In contrast, the MT acquired longer time to efficiently stain cells. The fluorescence signal of MC-Mito1 and MC-Mito2 from the ‘blue channel’ on fluorescence microscope (420-470 nm) were confined in cells with a negligible background signal from the culture medium, supporting the hypothesis that the flavone dyes gave higher emission in low-polar environment. Generally, the S/N ratios in fluorescent images were above 3, which could be considered acceptable for the discrimination of mitochondria. Therefore, this wash-free method could be a useful probe for real-time monitor of mitochondrial changes.
Human mesenchymal stem cells (hMSCs) (Lonza, Walkersville, Md.) were cultured in serum-containing MSCBM medium (Lonza) supplemented with MSCGM SingleQuots (Lonza) according to manufacturer's specifications. hMSCs (Passage 5) were seeded at a density of 5.0×10^4 cell/cm^2. […] The cell imaging was obtained on a Zeiss inverted fluorescence microscopy with X-Cite Series 120Q. […]

Compound	co-localization with MT (mitochondria) (mitochondria in hMSCs)	Stokes shift [2]	absorption maxima [2]	emission maxima [2]	cell viability (hMSCs [3])	fluorescence quantum yield (QY) [4]	fluorescence intensity enhancement [5]	specificity to mitochondria after CCCP treatment [1]	uptake / imaging signal (sensitivity) after CCCP treatment [1]	also measured
N#CC(C#N)=NNc1cccc(Cl)c1 [CCCP, carbonyl cyanide m-chlorophenylhydrazone, reference compound]										mitochondrial morphology ([1]; hMSCs, 10 μM CCCP for 30 min): mostly transformed to small and dispersed fragments
O=c1c(O)c(-c2ccc(N3CCOCC3)cc2)oc2ccccc12 [MC, 3-hydroxy-2-(4-morpholinophenyl)-4H-chromen-4-one]	almost no co-localization with MT									
O=c1c(OCCC[P+](c2ccccc2)(c2ccccc2)c2ccccc2)c(-c2ccc(N3CCOCC3)cc2)oc2ccccc12.[Br-] [MC-Mito1, (3-(2-(4-morpholinophenyl)-4-oxo-4H-chromen-3-yloxy)propyl)triphenylphosphonium bromide]	matched those stained with MT (red channel) very well	~127 nm	373 nm	500 nm	~100%	28%	about 17 fold	almost no more specificity to mitochondria	extremely weaker imaging signal than that in normal cells	
ClCc1ccc(C2=c3cc4c5c(c3Oc3c2cc2c6c3CCCN6CCC2)CCC[N+]=5CCC4)cc1.[Cl-] [MT, reference compound]								specificity became worse	decreased by more than half	time to stain living cells (hMSCs [6]): longer time; viable cells (hMSCs [3]; hMSCs, 5 μM, 24 hours): less than 10%
O=c1c(OCCCCCCBr)c(-c2ccc(N3CCOCC3)cc2)oc2ccccc12 [MC-Br, 3-(6-bromohexyloxy)-2-(4-morpholinophenyl)-4H-chromen-4-one]	almost no co-localization with MT									
O=c1c(OCCCCCC[P+](c2ccccc2)(c2ccccc2)c2ccccc2)c(-c2ccc(N3CCOCC3)cc2)oc2ccccc12.[Br-] [MC-Mito2, (6-(2-(4-morpholinophenyl)-4-oxo-4H-chromen-3-yloxy)hexyl)triphenylphosphonium bromide]	matched well with MT	~127 nm	373 nm	500 nm	~100%	33%	about 55 fold	perfectly retained	perfectly retained	

Reference: patent publication US10264976B2, “Biocompatible flavonoid compounds for organelle and cell imaging” (The University of Akron, priority 2015, dated 2019)
